Results as given in publication PMC3604073, “Chemerin Is an Antimicrobial Agent in Human Epidermis” (PLoS ONE, 2013).

B1: pro-chem163S: chemerin precursor (holoprotein) with the inhibitory C-terminal peptide (protein, UniProt Q99969 21-163, looked up)
pro-form: ELTEAQRRGLQVALEEFHKHPPVQWAFQETSVESAVDTPFPAGIFVRLEFKLQQTSCRKRDWKKPECKVRPNGRKRKCLACIKLGSEDKVLGRLVHCPIETQVLREAEEHQETQCLRVQRAGEDPHSFYFPGQFAFSKALPRS
modifications: pro-form

Legend:
E. coli ATCC 25922 = experiment: Radial diffusion assay (RDA); type: cell-based; conditions: peptides at 100 µM, low salt conditions
Protocol: The indicated bacteria were grown to mid-logarithmic phase in 10 ml of full-strength (3% w/v) TSB as previously described. The microorganisms were then washed once with 10 mM Tris, pH 7.4. 4×10^6 bacterial CFUs were then added to 15 ml of the underlay agarose gel, consisting of 0.03% (w/v) TSB, 1% (w/v) low electroendosmosis type (EEO) agarose (Sigma) and 0.02% (v/v) Tween 20 (Sigma), with or without 0.15 M NaCl. The underlay was poured into a Ø 144 mm Petri dish. After agarose solidification, 4 mm-diameter wells were punched and 6 µl of chemerin-derived peptides or LL37 (Innovagen AB) was added to each well. Plates were incubated at 37°C for 3 hours to allow diffusion of the peptides. The underlay gel was then covered with 15 ml of molten overlay (6% TSB and 1% Low-EEO agarose in dH2O). Antimicrobial activity of a peptide was visualized as a zone of clearing around each well after 18–24 hours of incubation at 37°C.

E. coli = conditions: evaluated at 2 µM; cited from earlier work

Molecule | inhibition of growth zones in RDA (E. coli ATCC 25922) | E. coli survival (E. coli)
DWKKPECKVRPNGRKRKCLA [p5, synthetic chemerin-derived peptide] | inhibited growth zones | –
RKCLACIKLGSEDKVLGRLV [p6, synthetic chemerin-derived peptide] | inhibited growth zones | –
B1 | – | 59±13%
